In patent publication US12595504B2, “Methods for screening compounds for bactericidal activity and for determining the sensitivity of bacterial samples” (priority 2020, dated 2026):
Read-outs that look alike come from different tables or passages of the source.

Key:
[1] = tested on: E. coli MG1655 KanR; test: ATP leakage assay on aminoglycoside resistant strain (KanR, APH(3′)-IIa); format: cell-based, Escherichia coli; conditions: MOPS minimal medium (glucose 0.4%), increasing concentrations, 37° C.
Description: FIG. 7. Absence of ATP leakage with an aminoglycoside resistant strain E. coli MG1655. The resistant strain (MG KanR) contains the gene for expression of the aminoglycoside O-phosphotransferase APH(3′)-IIa. ATP release of resistant (KanR) or non-resistant (WT) MG 1655 E. coli cells exposed in MOPS minimal medium (glucose 0.4%) to increasing concentrations of neomycin at 37° C. ATP leakage was absent for the resistant strain (KanR).
The classical luciferase was from Molecular Probes (ATP Determination Kit (A22066)). The thermostable luciferase was from “CheckLite AT100” (kikkoman). The Luciferin-luciferase reagents were prepared following manufacturer instructions. Bacteria from exponentially growing cultures (OD600=0.3) were added to each well (60 μl/well) of a black 96-microtiter plate (Greiner Bio-one, 655076) and 20 μl of the luciferin-luciferase reagent solution was added. The microtiter plate was incubated 5 min at 37° C. for reaction with the luciferase to eliminate traces of extracellular ATP. Then 40 μl of antibiotic solution (3 times concentrated) prepared in the culture medium were added. Bioluminescence of each well was monitored for 4 hours under shaking (218 rpm) and at 28 or 37° C., depending on the experiments (see legends of Figures). The reagent stability in presence or absence of antibiotics was checked in control experiments without bacteria but with 4 pmoles of ATP. […]

[2] = tested on: S. aureus USA300; test: CFU kill assay of stationary phase cells with or without centrifugation; format: cell-based, Staphylococcus aureus
Description: FIG. 4. A. Centrifugation with change for fresh medium prior to aminoglycoside exposure stimulates drug bactericidal effect. S. aureus USA300 in TSB medium with 0.25% glucose was incubated until stationary phase has been reached at 37° C. Cells were either centrifuged at 12 000 rpm for 5 minutes (+) or placed at 37° C. without centrifugation (≠). After centrifugation, pellets were washed with fresh broth and placed at 37° C. Depending on the test, different concentrations of neomycin were added. S. aureus USA300 samples that were centrifuged and washed with fresh broth are more sensitive to neomycin. For instance, bacterial CFU go below the detection threshold (10^2 CFU/ml) at 2 hours for 8 mM and 2 mM concentrations while it takes 2 more hours for the 0.5 mM concentration. Bars represent the standard error from the mean (SEM) calculated on GraphPad Prism version 8.4.1. B. S. aureus USA300 in TSB medium with 0.25% glucose was incubated until stationary phase has been reached at 37° C. Cells were either centrifuged at 12 000 rpm for 5 minutes or placed at 37° C. without centrifugation. After centrifugation, pellets were washed with fresh broth and placed at 37° C. A volume of 100 μL of fresh media with 4 mM of neomycin was added to all the tubes (final concentration at 2 mM), centrifuged or not, 5, 15, 30, 60 and 120 minutes post-centrifugation. Samples were incubated for a total of 2 hours with the neomycin before being washed three times with PBS 1×, diluted and incubated on tryptic soy agar. The next day, colony forming units/mL were counted. Bars represent the standard deviation (SD) calculated on GraphPad Prism version 8.4.3.

[3] = tested on: biofilm of the multidrug-resistant Staphylococcus aureus USA300 strain; test: Drug dependent ATP release from biofilm; format: cell-based; conditions: washed biofilm, 37° C., FIG. 20b
Description: FIG. 20. Drug dependent ATP release from biofilm of the multidrug-resistant Staphylococcus aureus USA300 strain. A, Control experiment at 37° C. in absence of antibiotic. Biofilms were washed with MOPS medium prior to be exposed to neomycin in the bioluminescent assay. Biofilms were obtained as described in the Examples section and washed twice with MOPS-G medium. Wash solutions were tested for the presence of ATP with the bioluminescence assay. […] Washed biofilms were then tested for ATP release. Signals were present in the first 40 min. This ATP release probably originates from shaking of the biofilm in the plate reader with physical perturbation of the biofilm. B, Biofilm response at 37° C. to drug exposure.
Biofilms were produced by following standard protocols. Briefly, S. aureus USA300 was incubated overnight in tryptic-soy broth (with 0.25% glucose) at 37° C. with 180 rpm agitation. Wells of a FLUOTRAC™ microplate (sterilized beforehand) were then filled with 150 μl of the inoculated broth previously diluted to obtain average concentrations between 10^5-10^6 CFU/ml. The microplate was covered and incubated at 37° C. for 18 hours. Biofilms were then washed twice with 150 μl of MOPS. 80 μl of the wash solution was not discarded and placed in an adjacent well to observe the quantity of ATP it contained. […]

[4] = tested on: E. coli; test: Survival assay (kill curves, CFU) with neomycin; format: cell-based, Escherichia coli; conditions: different neomycin concentrations, LB
[5] = tested on: Escherichia coli MG1655; test: Antibiotic MIC determination (serial twofold dilutions, OD600 during 17 hours at 37° C.); format: cell-based
Description: The Minimal Inhibitory Concentration (MIC) of the antibiotics was determined under the same culture conditions as the tests using the ATP assay kit. […] An exponentially growing culture (OD600=0.3) was added to each well (60 μl/well) of a sterile microtiter plate containing the test concentration of antibiotic (40 μl/well). The volume was completed to 120 μl with medium and OD600 nm measurements were performed using a microtiter plate reader (Infinite 200 PRO, TECAN) during 17 hours at 37° C.
In all the following experiments, the MIC values were measured for each antibiotic with parameters such as temperature, OD600 and equipment identical to those used for the bioluminescence assay.

[6] = tested on: E. coli MG1655 reporter cells; format: cell-based, Escherichia coli
Description: The classical luciferase was from Molecular Probes (ATP Determination Kit (A22066)). The thermostable luciferase was from “CheckLite AT100” (kikkoman). The Luciferin-luciferase reagents were prepared following manufacturer instructions. Bacteria from exponentially growing cultures (OD600=0.3) were added to each well (60 μl/well) of a black 96-microtiter plate (Greiner Bio-one, 655076) and 20 μl of the luciferin-luciferase reagent solution was added. The microtiter plate was incubated 5 min at 37° C. for reaction with the luciferase to eliminate traces of extracellular ATP. Then 40 μl of antibiotic solution (3 times concentrated) prepared in the culture medium were added. Bioluminescence of each well was monitored for 4 hours under shaking (218 rpm) and at 28 or 37° C., depending on the experiments (see legends of Figures). The reagent stability in presence or absence of antibiotics was checked in control experiments without bacteria but with 4 pmoles of ATP. Tests were also performed in 384-microtiter plates (Greiner Bio-one, 784076).
Aminoglycosides are bactericidal antibiotics causing translational miscoding with lethal consequences for the cell. Leakage of small molecules following an aminoglycoside shock was previously identified by different methods including radiolabelling. Therefore, the inventors investigated the response of live cells to aminoglycoside stress.

Substance: Neomycin
- ATP leakage [1]: absent
- Time at which bacterial CFU go below the detection threshold (10^2 CFU/ml) ([2]; 0.5 mM, samples centrifuged and washed, compared with 8 mM and 2 mM): 2 more hours
- Time at which bacterial CFU go below the detection threshold (10^2 CFU/ml) ([2]; 2 mM, samples centrifuged and washed with fresh broth): 2 hours
- Time at which bacterial CFU go below the detection threshold (10^2 CFU/ml) ([2]; 8 mM, samples centrifuged and washed with fresh broth): 2 hours
- ATP release from biofilm [3]: triggered ATP release
- Number of colonies forming units (CFU) during the first 90 minutes [4]: remained constant
- MIC in LB ([5]; LB medium, OD600 0.15 final, 37° C.): 22.8 µg/mL
- MIC in MOPS glucose 0.4% ([5]; MOPS minimal medium glucose 0.4%, 37° C.): 0.8 µg/mL
- Experimental MIC ([5]; Mueller Hinton media, EUCAST inoculum): 3.12 µg/mL
- Shape of ATP release trace ([6]; LB medium, 37° C., FIG. 8): bi-phasic
- Shape of ATP release trace ([6]; MOPS minimal medium (glucose 0.4%), FIG. 11): monophasic
- Lag time before ATP ([6]; antibiotic at 5.6 μg/mL, LB, 37° C.): 48.6 min
- Lag time before ATP ([6]; antibiotic at 11.25 μg/mL, LB, 37° C.): 42.4 min
- Lag time before ATP ([6]; antibiotic at 22.8 μg/mL, LB, 37° C.): 16.3 min
- Lag time before ATP ([6]; antibiotic at 45.0 μg/mL, LB, 37° C.): 12.8 min
- Lag time before ATP ([6]; antibiotic at 91.0 μg/mL, LB, 37° C.): 9.4 min
- Lag before ATP release (shortest, incompressible value) ([6]; highest concentrations tested, LB, 37° C.): about 9.4 min
